In patent publication US9695155B2, “Herbicidal substituted pyrimidinyloxy benzene compounds” (E. I. DU PONT DE NEMOURS AND COMPANY, priority 2013, dated 2017):

Legend:
rice = assay: Test B flooded paddy test; format: in vivo, Oryza sativa; details: Flood, 250 g ai/ha; 0 to 100 scale where 0 is no effect and 100 is complete control
Outline: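 Visual ratings on a 0 to 100 scale, where 100 means complete control, compared treated plants with controls after 13 to 15 days in a greenhouse. Treatment went into paddy water 3 cm deep over the soil, applied to plants at the 2-leaf stage.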

wheat, winter = assay: Test C postemergence; format: in vivo, Triticum aestivum; details: for Plant response rating (0 to 100), Wheat: postemergence; for Plant response rating, Wheat: Postemergence, scale 0 to 100 (0 no effect, 100 complete control)
Outline: (§1)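 Greenhouse herbicide screen. Pre: seeded loam/sand, sprayed at planting. Post: 1–4 leaf plants (2–18 cm) in peat-based mix. Formulation: solvent mixture + surfactant, non-phytotoxic. Readout: visual % control vs untreated, 13–15 d; dash = not tested.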

Italian ryegrass = assay: Test C postemergence; format: in vivo, Lolium multiflorum; details: for Plant response rating (0 to 100), Ryegrass, Italian: postemergence; for Plant response rating, Ryegrass, Italian: Postemergence, scale 0 to 100 (0 no effect, 100 complete control)
Outline: as §1

corn = assay: Test A preemergence; format: in vivo, Zea mays
Outline: (§2)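 Scoring: eye-based comparison with untreated controls, 0 for no effect through 100 for complete control, at about day 10. Treatments: directed soil spray preemergence; foliar spray postemergence on 2–10 cm plants at the one- to two-leaf stage. Medium: loam soil with sand.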

blackgrass = assay: Test C postemergence; format: in vivo, Alopecurus myosuroides; details: for Plant response rating, Blackgrass: Postemergence
Outline: as §1

yellow nutsedge = assay: Test C postemergence; format: in vivo, Cyperus esculentus; details: for Plant response rating (0 to 100), Nutsedge, Yellow: postemergence; for Plant response rating, Nutsedge, Yellow: Postemergence, scale 0 to 100 (0 no effect, 100 complete control)
Outline: as §1

pigweed = assay: Test C postemergence; format: in vivo, Amaranthus retroflexus; details: for Plant response rating (0 to 100), Pigweed: postemergence; for Plant response rating, Pigweed: Postemergence, scale 0 to 100 (0 no effect, 100 complete control)
Outline: as §1

giant foxtail = assay: Test A preemergence; format: in vivo, Setaria faberii; details: for Foxtail, Giant plant response rating: 0 to 100 scale, 0 no effect, 100 complete control, approx. 10 days
Outline: as §2

lambsquarters = assay: Test C postemergence; format: in vivo, Chenopodium album; details: for Plant response rating (0 to 100), Lambsquarters: postemergence; for Plant response rating, Lambsquarters: Postemergence, scale 0 to 100 (0 no effect, 100 complete control)
Outline: as §1

ragweed = assay: Test C postemergence; format: in vivo, Ambrosia elatior; details: for Plant response rating (0 to 100), Ragweed: postemergence; for Plant response rating, Ragweed: Postemergence, scale 0 to 100 (0 no effect, 100 complete control)
Outline: as §1

wild oat = assay: Test C postemergence; format: in vivo, Avena fatua; details: for Plant response rating (0 to 100), Oat, Wild: postemergence; for Plant response rating, Oat, Wild: Postemergence, scale 0 to 100 (0 no effect, 100 complete control)
Outline: as §1

[1] = 1000 g ai/ha, 0 to 100 scale, 0 no effect, 100 complete control
[2] = 31 g ai/ha, scale 0 to 100 (0 no effect, 100 complete control), 13 to 15 days
[3] = 62 g ai/ha, scale 0 to 100 (0 no effect, 100 complete control)
[4] = 125 g ai/ha, 0 to 100 scale where 0 is no effect and 100 is complete control
[5] = 8 g ai/ha, 0 is no effect, 100 is complete control
[6] = 16 g ai/ha, 0 is no effect, 100 is complete control

Compound: Clc1cnc(Oc2cccc(Br)c2-n2cc(Br)cn2)nc1 [Compound 65]
- Plant response rating, Rice (rice): 0
- Plant response rating (0 to 100), Wheat (wheat, winter; 125 g ai/ha): 10
- Plant response rating, Wheat (wheat, winter; 31 g ai/ha, 13 to 15 days): 0
- Plant response rating, Wheat (wheat, winter; 62 g ai/ha): 5
- Plant response rating (0 to 100), Ryegrass, Italian (Italian ryegrass; 125 g ai/ha): 5
- Plant response rating, Ryegrass, Italian (Italian ryegrass; 31 g ai/ha, 13 to 15 days): 0
- Plant response rating, Ryegrass, Italian (Italian ryegrass; 62 g ai/ha): 0
- Plant response rating, Corn (corn; [1]): 40
- Blackgrass plant response rating (blackgrass; 16 g ai/ha, postemergence, visual rating, scale 0 to 100 (0 no effect, 100 complete control), 13 to 15 days): 0
- Plant response rating (0 to 100), Blackgrass (blackgrass; 125 g ai/ha, postemergence): 15
- Plant response rating, Blackgrass (blackgrass; [2]): 10
- Plant response rating, Blackgrass (blackgrass; [3]): 40
- Plant response rating (0 to 100), Nutsedge, Yellow (yellow nutsedge; 125 g ai/ha): 15
- Plant response rating, Nutsedge, Yellow (yellow nutsedge; 31 g ai/ha, 13 to 15 days): 5
- Plant response rating, Nutsedge, Yellow (yellow nutsedge; 62 g ai/ha): 5
- Plant response rating (0 to 100), Pigweed (pigweed; 125 g ai/ha): 98
- Plant response rating, Pigweed (pigweed; 31 g ai/ha, 13 to 15 days): 90
- Plant response rating, Pigweed (pigweed; 62 g ai/ha): 95
- Foxtail, Giant plant response rating (giant foxtail; 1000 g ai/ha): 100
- Plant response rating (0 to 100), Lambsquarters (lambsquarters; 125 g ai/ha): 90
- Plant response rating, Lambsquarters (lambsquarters; 31 g ai/ha, 13 to 15 days): 80
- Plant response rating, Lambsquarters (lambsquarters; 62 g ai/ha): 75
- Plant response rating (0 to 100), Ragweed (ragweed; 125 g ai/ha): 35
- Plant response rating, Ragweed (ragweed; 31 g ai/ha, 13 to 15 days): 5
- Plant response rating, Ragweed (ragweed; 62 g ai/ha): 25
- Plant response rating (0 to 100), Oat, Wild (wild oat; 125 g ai/ha): 5
- Plant response rating, Oat, Wild (wild oat; 31 g ai/ha, 13 to 15 days): 0
- Plant response rating, Oat, Wild (wild oat; 62 g ai/ha): 5

Compound: N#Cc1cccc(Oc2ncc(Cl)cn2)c1-n1cnc(Br)c1 [Compound 74]
- Plant response rating, Rice (rice): 0
- Plant response rating (0 to 100), Wheat (wheat, winter; 125 g ai/ha): 0
- Plant response rating (0 to 100), Wheat (wheat, winter; 250 g ai/ha): 5
- Plant response rating, Wheat (wheat, winter; 31 g ai/ha, 13 to 15 days): 0
- Plant response rating, Wheat (wheat, winter; 62 g ai/ha): 0
- Plant response rating (0 to 100), Ryegrass, Italian (Italian ryegrass; 125 g ai/ha): 0
- Plant response rating (0 to 100), Ryegrass, Italian (Italian ryegrass; 250 g ai/ha): 5
- Plant response rating, Ryegrass, Italian (Italian ryegrass; 31 g ai/ha, 13 to 15 days): 0
- Plant response rating, Ryegrass, Italian (Italian ryegrass; 62 g ai/ha): 0
- Plant response rating, Corn (corn; [4]): 0
- Corn plant response rating (corn; 500 g ai/ha, 0 to 100 scale, 0 no effect, 100 complete control, approx. 10 days): 40
- Plant response rating (0 to 100), Blackgrass (blackgrass; 125 g ai/ha, postemergence): 0
- Plant response rating (0 to 100), Blackgrass (blackgrass; 250 g ai/ha, postemergence): 5
- Plant response rating, Blackgrass (blackgrass; [2]): 0
- Plant response rating, Blackgrass (blackgrass; [3]): 0
- Plant response rating (0 to 100), Nutsedge, Yellow (yellow nutsedge; 125 g ai/ha): 0
- Plant response rating (0 to 100), Nutsedge, Yellow (yellow nutsedge; 250 g ai/ha): 0
- Plant response rating, Nutsedge, Yellow (yellow nutsedge; 31 g ai/ha, 13 to 15 days): 0
- Plant response rating, Nutsedge, Yellow (yellow nutsedge; 62 g ai/ha): 0
- Plant response rating (0 to 100), Pigweed (pigweed; 125 g ai/ha): 65
- Plant response rating (0 to 100), Pigweed (pigweed; 250 g ai/ha): 80
- Plant response rating, Pigweed (pigweed; 31 g ai/ha, 13 to 15 days): 40
- Plant response rating, Pigweed (pigweed; 62 g ai/ha): 60
- Plant response rating, Foxtail, Giant (giant foxtail; [4]): 90
- Foxtail, Giant plant response rating (giant foxtail; 500 g ai/ha): 100
- Plant response rating (0 to 100), Lambsquarters (lambsquarters; 125 g ai/ha): 75
- Plant response rating (0 to 100), Lambsquarters (lambsquarters; 250 g ai/ha): 85
- Plant response rating, Lambsquarters (lambsquarters; 31 g ai/ha, 13 to 15 days): 40
- Plant response rating, Lambsquarters (lambsquarters; 62 g ai/ha): 75
- Plant response rating (0 to 100), Ragweed (ragweed; 125 g ai/ha): 40
- Plant response rating (0 to 100), Ragweed (ragweed; 250 g ai/ha): 60
- Plant response rating, Ragweed (ragweed; 31 g ai/ha, 13 to 15 days): 40
- Plant response rating, Ragweed (ragweed; 62 g ai/ha): 40
- Plant response rating (0 to 100), Oat, Wild (wild oat; 125 g ai/ha): 10
- Plant response rating (0 to 100), Oat, Wild (wild oat; 250 g ai/ha): 10
- Plant response rating, Oat, Wild (wild oat; 31 g ai/ha, 13 to 15 days): 0
- Plant response rating, Oat, Wild (wild oat; 62 g ai/ha): 0

Compound: CC(=NO)c1cn(-c2c(Br)cccc2Oc2ncc(Cl)cn2)nn1 [Compound 115]
- Plant response rating, Rice (rice): 0
- Plant response rating (0 to 100), Wheat (wheat, winter; [5]): 0
- Plant response rating (0 to 100), Wheat (wheat, winter; [6]): 0
- Plant response rating (0 to 100), Ryegrass, Italian (Italian ryegrass; [5]): 0
- Plant response rating (0 to 100), Ryegrass, Italian (Italian ryegrass; [6]): 0
- Plant response rating, Corn (corn; [1]): 60
- Plant response rating (0 to 100), Blackgrass (blackgrass; 4 g ai/ha, postemergence, 0 is no effect, 100 is complete control): 0
- Plant response rating (0 to 100), Blackgrass (blackgrass; 8 g ai/ha, postemergence, 0 is no effect, 100 is complete control): 0
- Plant response rating (0 to 100), Blackgrass (blackgrass; 16 g ai/ha, postemergence, 0 is no effect, 100 is complete control): 0
- Plant response rating, Blackgrass (blackgrass; [2]): 5
- Plant response rating (0 to 100), Nutsedge, Yellow (yellow nutsedge; [5]): 0
- Plant response rating (0 to 100), Nutsedge, Yellow (yellow nutsedge; [6]): 0
- Plant response rating (0 to 100), Pigweed (pigweed; [5]): 15
- Plant response rating (0 to 100), Pigweed (pigweed; [6]): 50
- Foxtail, Giant plant response rating (giant foxtail; 1000 g ai/ha): 100
- Plant response rating (0 to 100), Lambsquarters (lambsquarters; [5]): 10
- Plant response rating (0 to 100), Lambsquarters (lambsquarters; [6]): 10
- Plant response rating (0 to 100), Ragweed (ragweed; [5]): 5
- Plant response rating (0 to 100), Ragweed (ragweed; [6]): 5
- Plant response rating (0 to 100), Oat, Wild (wild oat; [5]): 0
- Plant response rating (0 to 100), Oat, Wild (wild oat; [6]): 0
